Assay [1] deals with E. coli O111B4. Description: Antibacterial experiment: supernatant of VD3-stimulated U-937 cells co-incubated with E. coli O111B4, colony count. The settings on record: for CFU: U937 supernatant. Format: cell-based. Here is the method:
In this study, the final activated form of vitamin D, 1,25-dihydroxyvitamin D3 [1,25 (OH)2D3] was the test substance. The lymphoma U-937 cells of human tissue cell were used as experimental systems, the E. coli O111B4 was the antibacterial target. Cell supernatants treated by 1,25(OH)2D3 was co-incubated with E. coli O111B4. The E. coli O111B4 colony forming units (CFU) was used to examine whether 1,25(OH)2D3 achieved an antibacterial effect by stimulating cell lines derived from human to secrete antimicrobial peptides in vitro.
U-937 cells in the condition of exponential growth were centrifuged (1000 rpm, 5 min);
After centrifugation, the supernatant was discarded, and cell sediment was resuspended in an appropriate amount of RPMI1640 incomplete medium to make sure cells dispersed uniformly;
The cell suspension was counted by hemacytometer counting;
The concentration of cell suspension was adjusted to 1×10^5/mL using RPMI 1640 incomplete medium;
Each well of 6-well plate was inoculated with 3 mL cell suspension, the total number of cells per well was 3×10^5;
According to the label and the experimental design, 10 μL 200× test solution or vehicle of various concentrations with 0.5% (v/v) dose volume was added to each well.
Each dose was repeated in two parallel wells, one well harvested after 24 hours, and the other well harvested after 48 hours;
After administration, the 6-well plate was placed in 37° C., 5% CO2 incubator, cultured for 24 hours and 48 hours respectively.
Day 1 afternoon, a E. coli O111B4 glycerol pipe was thawed, 10 μL glycerol bacteria was inoculated in 10 mL of LB liquid medium without any antibiotic, and was cultured on oscillator at 37° C. overnight; Day 2 morning, 200 μL cultured broth (1:100 ratio) cultured overnight was transferred to 20 mL LB liquid medium without any antibiotics and was cultured on oscillator at 37° C. until OD600 was 0.6-1.0, then the next step was antibacterial experiment (Day 3); the remaining overnight cultured broth was stored in the refrigerator at 2-8° C. until needed.
Day 2 afternoon, 10 μL overnight cultured broth was inoculated in 10 mL LB medium without any antibiotics, and was cultured on oscillator at 37° C. overnight;
Day 3 morning, 200 μL overnight cultured broth (1:100 ratio) was transferred to 20 mL LB medium without any antibiotics, and was cultured on oscillator at 37° C. until OD600 was 0.6-1.0, then the next step was antibacterial experiment (Day 3).
Before the experiment started, 1.5% agar plate (lower medium) prepared beforehand was placed at room temperature for at least one hour;
Top agar medium (containing 0.8%/agar) was melted, and packaged. Each 1.6 mL of Top agar medium was packaged in each tube, and then the small tube was placed in 45° C. water bath to keep warm;
10 mL E. coli bacteria of OD600 0.6-1.0 was transferred into 50 mL centrifuge tubes to centrifuge (1000 rpm×5 min); After centrifugation, the supernatant was discarded, the bacteria precipitate was resuspended by adding 10 mL PBS; the above-described bacterial suspension was diluted 1×10^5 fold in PBS dilution by multiple proportion dilution (from 10-fold); After the drug action finished (24 hours or 48 hours), U-937 cells was centrifugated (1000 rpm, 5 min). After centrifugation, the supernatant was drawn back;
Each centrifuge tube previously added 50 μL diluted bacterial suspension (approximately 150-250 bacteria);
Bacterial suspension were added with 1.2 mL cell supernatant from each cell supernatant, and mixed;
The supernatant/bacterial mixture was placed on shaking table (200 rpm) at 37° C. and was incubated for 90 minutes. After incubation, the next step was plating;
Plating: 0.8 mL of cell supernatant/broth mixture was mixed with 1.6 mL top agar medium, the mixture was plated on 1.5% agar plates, 600 uL per well in triplicate.
Sterility test: 800 uL PBS and 1.6 mL top agar medium was mixed, and plated as above. […]

Assay [2] has as its system E. coli CFT073. Description: Antibacterial experiment: VD3-stimulated 5637 bladder cells co-incubated with E. coli CFT073, CFU of cell lysate. To be noted: 5637 cells stimulated by VD3 at different concentrations, FIG. 3. Format: cell-based. Here is the method:
In this study, the final activated form of vitamin D, 1,25-dihydroxyvitamin D3 [1,25(OH)2D3] was the test substance, the human bladder cancer cells 5637 was used as experimental systems, the E. coli CFT073 was antibacterial target, cells treated by 1,25(OH)2D3 was co-incubated with E. coli CFT073. The E. coli CFT073 colony forming units (CFU) was used to examine whether 1,25(OH)2D3 achieved an antibacterial effect by stimulating cell lines derived from human to secrete antimicrobial peptides in vitro.
5637 cells in the condition of exponential growth and about 90% confluence were digested by pancreatin (GIBCO, Cat. No. 25200-056) for 5 min. When most of the cells came off from the culture plate, complete medium was added to terminate digestion. The non-peeling cells were blown down from the culture plate by a pipette, and were transferred to a 15 ml centrifuge tube. The cells were centrifuged at 1500 rpm for three minutes. The supernatant was discarded. The cell deposit was resuspended in complete medium to ensure that the cells uniformly dispersed.
(§1) The cell suspension was counted by hemacytometer;
The concentration of cell suspension was adjusted to 4×10^5/mL using incomplete RPMI 1640 medium;
Each well of 6-well plate was inoculated with 2 mL cell suspension, the total number of cells per well was 8×10^5;
6-well plate was placed in an incubator under the condition of 37° C., 5% CO2. […]

The subject of assay [3] is LL-37. Description: ELISA of LL-37 in lysate of VD3-stimulated 5637 cells. It is filed as cell-based, human. To be noted: 5637 cells stimulated with VD3 at different concentrations, FIG. 4. How it is done: 3.2 ELISA Experiments about Effect of 1,25 (OH)2D3 on LL-37 Production 3.2.1 the Procedure of Inoculation (Day1), Administration (Day2), and E. coli infection bacteria solution preparation (Day 2&3) was the same as 3.1.1, 3.1.2 and 3.1.3.
Cell lysate was obtained using the method of 3.1.4. Cell debris and bacteria were removed by 13000 rpm centrifugation for 5 min. Lysate supernatant was fetched out and LL-37 was quantified by Human LL-37 ELISA Kit (Hycult, Cat. No. HK321).

In assay [4] the test system is E. coli CFT073. Nature of the assay: Antibacterial experiment: VD3-stimulated SV-HUC1 urethral epithelial cells co-incubated with E. coli CFT073, CFU of cell lysate. It is filed as cell-based. To be noted: SV-HUC1 cells stimulated by VD3 at different concentrations, FIG. 5. How it is done: In this study, with the final activated form of vitamin D3, 1,25-dihydroxyvitamin D3 [1,25 (OH)2D3] as the test substance, the immortalized human urethral epithelial cells SV-HUC1 as experimental systems, the E. coli CFT073 as antibacterial target, the cells treated by 1,25 (OH) 2D3 were co-incubated with E. coli CFT073. The E. coli CFT073 colony forming units (CFU) were used to examine whether 1,25 (OH) 2D3 achieves an antibacterial effect by stimulating cell lines derived from human to secrete antimicrobial peptides in vitro.
SV-HUC1 cells in the condition of exponential growth and about 90% confluence were digested by pancreatin (GIBCO, Cat. No. 25200-056) for 5 min. When most of the cells came off from the culture plate, complete medium was added to terminate digestion. The non-peeling cells were blown down from the culture plate by a pipette, and were transferred to a 15 ml centrifuge tube. The cells were centrifuged at 1500 rpm for three minutes. The supernatant was discarded. The cell deposit was resuspended in complete medium to ensure that the cells dispersed uniformly.
as §1
The concentration of cell suspension was adjusted to 4×10^5/mL using F12 incomplete medium;
Each well of 6-well plate was inoculated with 2 mL cell suspension, the total number of cells per well was 8×10^5; […]

The text below walks through data of patent US20160324876A1, “VITAMIN D AND ANTIBACTERIAL USES OF COMPOSITIONS THEREOF” (ZENSUN SCIENCE & TECHNOLOGY LIMITED, priority 2014, published 2016).

Consider `C=C1/C(=C\C=C2/CCC[C@]3(C)[C@@H]([C@H](C)CCCC(C)(C)O)CC[C@@H]23)C[C@@H](O)C[C@@H]1O` [VD3, 1,25-dihydroxyvitamin D3], for which the CFU was 172 in assay [1] (High dose, VD3 10^−7M, Day 1, Serum 10%); 112 in assay [1] (High dose, VD3 10^−7M, Day 2, Serum 1%); 127 in assay [1] (High dose, VD3 10^−7M, Day 2, Serum 10%); 108 in assay [1] (High dose, VD3 10^−7N, Day 1, Serum 1%); 102 in assay [1] (Low Dose, VD3 10^−8M, Day 1, Serum 1%); 112 in assay [1] (Low Dose, VD3 10^−8M, Day 1, Serum 10%). Further, the CFU was 93 in assay [1] (Low Dose, VD3 10^−8M, Day 2, Serum 1%) and 97 in assay [1] (Low Dose, VD3 10^−8M, Day 2, Serum 10%). Besides, the “antibacterial effect of supernatant solution” value in assay [1] (U937 cells stimulated by different concentrations of VD3) is “significant antibacterial effect”. Moreover, in assay [2], the “antibacterial effect (relative CFU of 5637 cell lysate vs ethanol control)” value is given as “significant antibacterial effect”. Also, the “LL-37 levels in cell lysates” value in assay [3] is on record as “significant dose-dependent increase”. In assay [4], the “antibacterial activity of cell lysates” value was “significant antibacterial activity”.

Consider `CC1(C)S[C@@H]2[C@H](NC(=O)[C@H](N)c3ccccc3)C(=O)N2[C@H]1C(=O)O` [antibiotic control group, ampicillin], for which the colonies produced entry in assay [1] (antibiotics control experiment: PBS, broth, 2 uL ampicillin, top agar) is reported as “no colonies produced”.
